Measured values as given in patent publication US20250134853A1, “COMPOUNDS AND METHODS FOR USING GALLOYLATED POLYPHENOLS TO TREAT DISEASES MEDIATED BY THIOL ISOMERASES” (Beth Israel Deaconess Medical Center, Inc., priority 2023, published 2025).
“Also recorded” adds a separate entry of the source.

Assays:
[1] = target: T1, ERp72 (Homo sapiens, UniProt P13667); assay: Di-eosin-GSSG disulfide reductase assay, ERp72; type: biochemical
T1 construct: recombinant His-tagged full-length ERp5, ERp72; His-tag; made in house; host or cells: Escherichia coli Origami B (DE3)
T1 sequence (P13667 21-645): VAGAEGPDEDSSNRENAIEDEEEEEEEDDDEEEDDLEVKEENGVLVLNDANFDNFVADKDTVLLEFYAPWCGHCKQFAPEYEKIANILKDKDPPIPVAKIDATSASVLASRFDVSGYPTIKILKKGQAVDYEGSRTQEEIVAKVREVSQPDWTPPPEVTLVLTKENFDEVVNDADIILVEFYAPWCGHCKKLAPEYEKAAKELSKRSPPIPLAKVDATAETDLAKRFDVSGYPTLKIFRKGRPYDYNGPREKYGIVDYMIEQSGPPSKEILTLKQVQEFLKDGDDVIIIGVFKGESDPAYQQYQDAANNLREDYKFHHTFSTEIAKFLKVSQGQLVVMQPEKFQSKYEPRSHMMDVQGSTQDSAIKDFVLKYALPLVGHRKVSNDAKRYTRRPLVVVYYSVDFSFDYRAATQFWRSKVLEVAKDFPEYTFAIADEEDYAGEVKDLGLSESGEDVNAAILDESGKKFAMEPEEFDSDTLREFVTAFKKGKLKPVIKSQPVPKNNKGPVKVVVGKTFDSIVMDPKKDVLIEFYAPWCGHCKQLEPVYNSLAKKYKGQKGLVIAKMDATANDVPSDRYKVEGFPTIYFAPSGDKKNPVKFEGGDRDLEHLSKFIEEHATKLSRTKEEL
Description: Recombinant protein purification. Recombinant ‘double-tagged’ (streptavidin-binding protein-tagged and FLAG-tagged) full-length PDI, ERp57, recombinant His-tagged full-length ERp5, ERp72, PDI domain fragments, and PDI mutant were cloned into a pET-15b vector at the NdeI and BamHI sites and transformed into Escherichia coli Origami B (DE3) cells (EMD Chemicals). The recombinant proteins were expressed and isolated by affinity chromatography with complete His-Tag purification resin (Roche Applied Science) or Pierce High-Capacity Streptavidin Agarose beads and purified on a Superdex 200 (GE Healthcare).
(§1) Di-eosin-GSSG disulfide reductase assay. […] Any fraction with a fold change >5 was kept.

[2] = target: ERp46 (Homo sapiens, UniProt Q8NBS9); assay: Di-eosin-GSSG disulfide reductase assay, ERp46; type: biochemical
Chain of ERp46 (Q8NBS9 33-432, species assumed): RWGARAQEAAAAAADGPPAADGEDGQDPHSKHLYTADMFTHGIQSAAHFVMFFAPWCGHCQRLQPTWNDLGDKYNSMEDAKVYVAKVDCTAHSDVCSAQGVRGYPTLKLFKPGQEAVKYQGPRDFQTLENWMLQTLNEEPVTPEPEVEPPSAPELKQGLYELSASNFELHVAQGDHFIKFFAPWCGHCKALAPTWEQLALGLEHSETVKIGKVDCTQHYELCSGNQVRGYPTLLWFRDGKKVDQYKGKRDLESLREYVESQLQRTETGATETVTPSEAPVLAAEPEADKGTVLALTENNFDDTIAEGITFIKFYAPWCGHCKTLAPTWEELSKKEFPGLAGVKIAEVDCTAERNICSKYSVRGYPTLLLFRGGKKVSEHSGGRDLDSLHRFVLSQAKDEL
Description: as §1

[3] = target: T2, PDI (Homo sapiens, UniProt P07237); assay: Insulin reductase assay; type: biochemical; details: PGHG incubated with PDI for 15 minutes
T2 construct: FLAG; made in house; host or cells: Escherichia coli Origami B (DE3)
T2 sequence (P07237 18-508): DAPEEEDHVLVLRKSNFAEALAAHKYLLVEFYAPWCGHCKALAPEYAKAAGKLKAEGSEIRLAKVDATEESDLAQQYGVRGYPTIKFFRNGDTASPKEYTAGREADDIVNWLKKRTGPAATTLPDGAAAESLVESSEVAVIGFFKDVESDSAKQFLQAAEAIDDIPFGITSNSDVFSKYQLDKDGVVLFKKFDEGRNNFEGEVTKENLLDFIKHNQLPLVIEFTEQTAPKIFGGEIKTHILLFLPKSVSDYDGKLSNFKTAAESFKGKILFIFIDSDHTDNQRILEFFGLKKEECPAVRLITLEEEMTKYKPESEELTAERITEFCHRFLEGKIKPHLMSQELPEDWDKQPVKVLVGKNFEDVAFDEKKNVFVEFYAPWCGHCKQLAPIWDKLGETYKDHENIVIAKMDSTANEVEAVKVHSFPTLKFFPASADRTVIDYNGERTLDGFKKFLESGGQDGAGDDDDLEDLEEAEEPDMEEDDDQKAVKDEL
Protocol: Insulin reductase assay. Insulin was prepared by mixing 12.5 mg/mL insulin in 50 mM Tris-HCl, pH 8. 1 M HCl was carefully added to drop the pH to 2.0 for solution clarification. Once the solution clarifies, 1 M NaOH was added to rapidly adjust the pH back to 8.0. The solution was then adjusted to 1.5 mM (10 mg/mL) with 50 mM Tris-HCl, aliquoted and stored in −20° C. until use. 2× concentrations of thiol isomerases were prepared (final concentrations as indicated in each assay) and mixed with 1.2 mM DTT (final 0.3 mM) and 0.4 mM insulin (final 0.1 mM) using a thiol isomerase activity assay buffer. Insulin precipitation from enzyme-mediated reduction was assayed in 96-well clear bottom plates at 650 nm absorption.

[4] = test system: PDI domain fragments (a, a′, ab, abb′, b′xa′); assay: Di-eosin-GSSG assay on isolated PDI domain fragments; type: biochemical; details: a, ab, b′xa′, abb′ fragments; PGHG at 10 μM
Protocol: Di-eosin-GSSG disulfide reductase assay. The probe di-eosin glutathione disulfide, di-eosin-GSSG, was prepared by incubating 100 μM of GSSG with 1 mM of eosin isothiocyanate in 100 mM potassium phosphate containing 2 mM EDTA (pH 7.4), at 25° C. overnight in the dark. The mixture was passed down a PD-10 column and different fractions were collected. A fold change of fluorescence (Ex: 520 nm, Em: 550 nm) was calculated using samples subjected to either vehicle or 20 mM of DTT. Any fraction with a fold change >5 was kept. Using a stock of 10 mM eosin isothiocyanate, a standard curve was generated and concentration of samples were determined accordingly. Di-eosin-GSSG cleavage of purified thiol isomerases and PDI domains was monitored in a 96-well fluorescence plate format. PDI, CGXC-PDI variants, ERp5, ERp57, ERp46 and PDI domains were assayed at 50 nM in the presence or absence of the indicated small molecules. The assay included a thiol isomerase assay buffer (39 mM KH2PO4, 61 mM K2HPO4, 2 mM EDTA, 5 M DTT, pH 7.4) and 150 nM of the di-eosin-GSSG probe. The increase in fluorescence was determined for 60 min by excitation at 520 nm and emission at 550 nm in a Synergy Biotek 4. The reduction of 150 nM di-eosin-GSSG by 5 μM DTT in the presence or absence of mentioned small molecule or proteins served as a negative control.

[5] = target: T2, PDI; assay: Maleimide-pegylated biotin (MPB) binding to PDI; details: preincubation with compound
Protocol: PDI was then exposed to MPB in Laemmli Sample buffer for 10 minutes. Samples were subsequently analyzed for MPB labeling with […] after SDS-PAGE and immunoblotting.
Maleimide-pegylated Biotin (MPB) binding. MPB-binding experiments were performed in a reaction volume of 37.5 μL of polyphenols with 5 μM of thiol isomerase in phosphate buffered saline (PBS). The reaction mixture was incubated at 37° C. for 1 h. Subsequently, the reaction mixtures were incubated with 25 μM of MPB. The labelling was performed for 20 min at 25° C. A total of 12.5 μL of 4× Laemmli Sample Buffer with 10% v/v β-mercaptoethanol was added to each of the samples, followed by heating at 95° C. for 10 min. From each sample, 10 μL was loaded on a 4-15% SDS-PAGE TGX gel, followed by transfer on a nitrocellulose membrane. After blocking the membrane with tris-buffered saline containing 0.1% v/v Tween-20 (TBS-T) containing 5% BSA for 1 h, the membrane was incubated with a 1:2,000 dilution of streptavidin-HRP in TBS-T for an hour in the dark. Detection of the immunoblots was performed using a BioRad ChemiDoc MP imager.

[6] = target: T2, PDI; assay: SDS-PAGE molecular weight shift (alkylation of PDI free thiols); type: biochemical
Description: FIG. 5 is an image of gel showing detection of PDI free thiol by the labeling of acetamido maleimidylstilbene disulfonic acid (AMS), which shifts the protein to a higher apparent molecular weight.
4-acetomido-4′-maleimidylstilbene-2,2′ disulfonic acid (AMS), which shifts the mass of the protein by 500 Da for every cysteine alkylated, was used as a positive control. […] N-ethylmaleimide (NEM) was used for a control experiment because covalent alkylation of the free thiols will expectedly prevent PDI activity (FIG. 6A).

[7] = test system: thrombus formation following laser injury of cremaster arterioles; assay: Laser-injury thrombosis model; type: in vivo, mice
Protocol: Laser-injury thrombosis model. Thrombus formation in response to laser injury was measured as described previously. See Grover S P, et al. J. Thromb. Haemost. 18:3078-85, 2020; Koseoglu S, et al. Arterioscler. Thromb. Vasc. Biol. 33:481-8, 2013; and Matsuura S, et al. Arterioscler. Thromb. Vasc. Biol. 40:e262-e72, 2020. Briefly, cremaster muscle arterioles were injured using a MicroPoint Laser System (Andor, Belfast, UK). Platelet and fibrin accumulation were measured by infusion of Dylight 649-labeled anti-platelet (CD42b; 0.1 μg/g body weight; Emfret Analytics) and DyLight 488-labeled anti-fibrin (clone 59D8; 0.3 μg/g) antibodies through a jugular vein catheter. Data were acquired before and after laser injury using the brightfield, 488/520 nm, and 640/670 nm channels. Images were captured for 250 seconds at 2 frames/s using a CCD camera (ORCA Flash 4.0, Hamamatsu Photonics, Japan) on an AX-70 fluorescence microscope (Olympus, Japan). Data were analyzed using Slidebook 6.0 (Intelligent Imaging Innovations). Data from 16 to 30 thrombi were used to determine the median value of the integrated fluorescence intensity to account for variability in thrombus formation under any given experimental condition. AUC was calculated for individual thrombi and normalized to injury lengths to evaluate statistical significance. Injury lengths were determined as previously described in Grover S P, et al. J. Thromb. Haemost. 18:3078-85, 2020.
The differences in platelet accumulation and fibrin formation were not secondary to differences in the extent of laser injury since injury size between control and PGHG-treated mice was indistinguishable (FIG. 10E).

[8] = test system: SARS-CoV-2; assay: Vero E6-based viral replication assay; type: cell-based
[9] = target: SARS-CoV-2 M^pro (Severe acute respiratory syndrome coronavirus 2, UniProt P0DTD1); details: cited from earlier work
[10] = 25 μg/g PGHG, intraperitoneal injection
[11] = PGHG 25 mg/kg (Example 1, FIG. 1)
[12] = intravenous infusion, 25 μg/g PGHG

O=C(O[C@@H]1[C@@H](O)[C@H](Oc2cc(O)c3c(c2)O[C@H](c2ccccc2)CC3=O)O[C@@H]2COC(=O)c3cc(O)c(O)c(O)c3-c3c(cc(O)c(O)c3O)C(=O)O[C@@H]12)c1cc(O)c(O)c(O)c1 [PGHG, pinocembrin 7-O-(3″-galloyl-4″,6″-(S)-hexahydroxydiphenoyl)-beta-D-glucose]
IC50 [1]: 7.8 µM | IC50 [2]: 3.9 µM | inhibition of PDI in insulin reductase assay (in words) [3]: low micromolar range | inhibition of isolated PDI fragments [4]: inhibited a and a′ fragments as well as ab, b′xa′ and abb′x fragments; also recorded: inhibited activity of all fragments including the isolated the a and a′ domains | effect on MPB binding to PDI [5]: no significant effect on MPB binding | shift in molecular weight of PDI in SDS polyacrylamide gel [6]: did not induce a shift in molecular weight | mean fibrin fluorescence [7, 10]: 33.44±7.53 % of control | mean platelet accumulation [7, 10]: 29.56±9.08 % of control | fibrin formation [7, 11]: 21±3 % of controls | platelet accumulation [7, 11]: 18±6 % of control levels | fibrin formation, fluorescence compared to controls [7, 12]: 21±3.7% | platelet accumulation, fluorescence compared to controls [7, 12]: 18±6.2% | IC50 [8]: 4.9 µM | Modeling shows gallic acid interaction with His41 or Glu166 [9]: His41; Glu166
